This is an account of results in a melting point compilation (Tetko et al.; mined from patent text by program, amines drawn as free bases though some values may be those of a salt).

Molecules are shown by their SMILES.

For orientation: melting point means the temperature of the solid-liquid transition. The compound `COc1ccc(-c2nn(-c3ccc(C)cc3)c3ncccc23)cc1` returned a melting point of 143 to 145 °C.
Next, `CN1C(=O)C(=O)c2cc(S(=O)(=O)N3CCC[C@H]3COc3ccccc3)ccc21`: 160 to 161 °C; `OC1(CCc2ccc3[nH]cc(C4CCNCC4)c3c2)CCCC1`: 190 to 191 °C; `N=C(NC(=O)OCc1ccccc1)c1ccc(C(=O)NCCC(=O)NCCC(=O)OCc2ccccc2)cc1`: 165 to 166 °C.
`C=C1OC(=NN)C(c2ccccc2)C(=O)N1C(C)(C)C(=O)Nc1cc(Cl)cc(Cl)c1` (stereo not given) gave a melting point of 146 to 149 °C.
Next, `CC1C=CC=CN2C3=C(C(=O)CCC3)N(C(=O)Nc3ccccc3F)C12` (stereo not given): 139 to 141 °C; `CCCOc1cc(C(=O)O)cc(S(N)(=O)=O)c1-c1ccccc1`: 155 to 157 °C; `COc1ccc(-c2nc(Sc3ccccn3)[nH]c2-c2ccc(OC)cc2)cc1`: 94 °C.
Next, `CCCCCCCc1c(C)[nH]c(C(=O)OCC)c1C`: 47 to 49 °C; `CCc1ccc(C2CCCCC2)nc1`: 79 to 81 °C.
The compound `O=C(Nc1cccc2c(CO)ccnc12)c1c(Cl)cccc1Cl` returned a melting point of 235 to 239 °C.
Next, `C=C(C(=O)NS(=O)(=O)c1cccc(C#N)c1)c1ccc(OCCOC)cc1Oc1ncc(C(F)(F)F)cc1Cl`: 195 to 197 °C; `CCOC(=O)Cn1cccc(NS(=O)(=O)Cc2ccccc2)c1=O`: 48 to 49 °C.
The compound `Fc1ccc(-c2[nH]cc(CCCN3CCN(Cc4ccccc4)CC3)c2-c2ccncc2)cc1` had a melting point of 153 to 154 °C.
Next, `FC(F)(F)COc1ccc(CCNc2ncnc3scnc23)cn1`: 109 to 112 °C; `CC(C)(C)Cn1cc(-c2ccc(Oc3ccccc3)cc2)c2c(N)ncnc21`: 158 °C.
Regarding `O=C(O)[C@H](Cc1ccccc1)Nc1c(N2CCN(c3ccccc3)CC2)c(=O)c1=O`, the melting point is 165 to 167 °C.
Next, `C[Si](C)(C)N1CCCCCN([Si](C)(C)C)CCN([Si](C)(C)C)CC1`: 78 to 86.5 °C; `c1ccc(CCN2CCC(c3n[nH]c4c3CCc3ccccc3-4)CC2)cc1`: 151 to 152 °C; `CNCC1Cc2c(Cl)cc3c(c2O1)CCC3` (stereo not given): 58 to 60 °C.
`CC(C)(C)c1ccc(-c2nc(COCCc3cccc(NS(=O)(=O)C(F)(F)F)c3)cs2)cc1` gave a melting point of 110 to 112 °C.
Next, `COC(=O)CCn1nc2ccccn2c1=O`: 95 to 99 °C; `CCOC(=O)C(C)(C)c1ccc(C2=NC(C)(C)Cc3cc(OC)c4c(c32)CC(C)(C)O4)cc1`: 150 to 151 °C.
`Cc1nc2cc(F)ccc2c(=O)o1`: the melting point lay in the range of 159 to 160 °C.
Next, `Cc1ccc2c(c1)Sc1ccc(Cl)cc1CC2N1CCN(C)CC1` (stereo not given): 136 to 138 °C; `COc1cccc([C@H]2O[C@H](CC(=O)NCCCC(=O)O)C(=O)N(CC(C)(C)CO)c3ccc(Cl)cc32)c1OC`: 111 to 113 °C; `CN1CCC(O)(c2cccc3[nH]ccc23)CC1`: 205 to 206 °C.
Next, `COc1ccc2c(c1)CCC1C2CCC2(C)C=CCC12` (stereo not given): 164 to 168 °C; `Cn1nc(-c2ccccc2O)c2sccc21`: 112 to 113 °C; `CCOc1ccc(Nc2nc(NC(CO)CO)nc(N(C)C3CCN(C)CC3)n2)cc1Cl`: 84 °C.
Next, `CC1=CC(=NO)CC(c2cccc(Cl)c2)N1` (stereo not given): 88 °C.
Take `COc1ccc(C(=O)NC[C@@H]2CN3C(=O)C[C@H]3O2)cc1` (racemic): the melting point was found to be 143 °C.
In the case of `COc1ccc(C2(c3ccc(OC)cc3)CN(c3ccc(S(C)(=O)=O)cc3)C(c3ccc(Cl)cc3)=N2)cc1`, the melting point fell in the range of 110 to 113 °C.
Next, `CCc1cn(C)c2cc(-c3ccccc3Cl)c3c(c12)C(=O)NC3=O`: 230 to 233 °C; `Cc1c(F)c(N2CCNC(C)C2)cc2c1c(=O)c(C(=O)O)cn2C1CC1` (stereo not given): 189 to 192 °C.
Next, `COC(=O)C(=CN(C)C)N(C)c1cc(-c2ccc(Cl)cc2)on1`: 190 °C; `CCCc1nc(C)n2ncnc2c1Cc1ccc(-c2ccccc2C#N)cc1`: 112 °C.
Turning to `COc1ccc(N2CCOCC2)c2sc(NC(=O)c3ccnc(CN(C)C(C)=O)c3)nc12`, the melting point was 228 to 230 °C.
Next, `COc1cc2sc(C#N)cc2c(Cl)c1OC`: 159 to 160 °C; `COc1ccc(-c2ccc3[nH]c4ncc(Cl)cc4c3c2)cc1`: greater than 220 °C; `CC(=O)c1nc2cccc(Oc3ccccc3)c2cc1OCc1ccccc1`: 116 to 118 °C.
Next, `c1cc2[nH]ncc2cc1OC1CCCC1`: 141 to 142 °C.
Next, `COc1ccc2cc3c(c(-c4ccc(OC(F)(F)F)cc4)c2c1)CNC3=O`: 277 to 280 °C; `CC(C(=O)C=CC1C(OC(=O)c2ccccc2)CC2OC(=O)CC21)C1C=CCC1` (mixture of isomers): 85 to 87.5 °C.
Regarding `Cc1cccc(NC(=O)NC2(C)N=C(N3CCN(C)CC3)c3cccc(C)c3N(C)C2=O)c1` (stereo not given), the melting point lay within 136 to 140 °C.
Next, `CCC(O)(CC)c1ccc(-c2cccc(OCc3ccc(CO)c(CO)c3)c2)cc1C`: 76 °C.
Next, `CS(=O)(=O)c1ccc(Oc2ccc(O)cc2)cc1`: 129 to 130 °C; `COc1ccc(NC(=O)c2ccccc2NC(=O)c2ccc(C(C)(C)C)cc2)cc1`: 208 to 210 °C; `CNC(=O)Nc1cc(C(Cl)(Cl)Cl)ccn1`: 192 to 195 °C.
Next, `CN(C=O)C1(C(=O)O)CC1`: 210 °C; `COC(=O)c1ncoc1C`: 46.5 to 47 °C.
In the case of `COc1cc(O)c(C=O)c2cc(-c3ccc(O)cc3)oc12`, the melting point fell in the range of 254 to 255 °C.
`Cc1nc(-c2ccc3c(c2)NC(=O)CO3)c(-c2ccccc2)s1` showed a melting point of 221 to 230 °C.
Next, `O=C(O)CN1C(=O)C(=Cc2cccc3ccccc23)SC1=S`: 241 to 244 °C; `ClCc1nnc2n1-c1ccccc1C(c1ccccc1Cl)=NC2`: 186 to 188 °C.
Next, `COc1ccc(C2Sc3cc(Sc4ccccc4)ccc3NC(=O)C2O)cc1` (stereo not given): 195 to 198 °C; `Clc1cc(Cl)n2c(-c3ccccc3)nc(Cl)c2n1`: 133 to 134 °C; `CN(C)N1C(=O)c2ccccc2NS1(=O)=O`: 168 °C.
Next, `CCCc1nc2c(N)nc3ccccc3c2n1CC(=O)OCC`: 170 to 172 °C.
Turning to `O=C(Nc1ccc(-c2cnc(-c3ccc(NC(=O)C4CCCCC4)cc3)[nH]2)cc1)C1CCCCCC1`, the melting point was in the range of 192 to 194 °C.
Compound `Cc1cccc(OCCO)c1` came in with a melting point of 76 to 78 °C.
Turning to `O=[N+]([O-])c1ccccc1OC1SCC(O)C(O)C1O` (stereo not given), the melting point is 137 to 140 °C.
`OCC1OC(n2cnc3c(NN4CCOCC4)nc(Cl)nc32)C(O)C1O` (stereo not given) came in with a melting point of 160 to 161 °C.
In the case of `O=C1OC(Cl)(Cl)c2c(Cl)c(Cl)c(Cl)c(Cl)c21`, the melting point was 136 to 138 °C.
With `COc1ccc(NC(=O)c2ccc(-c3ccc(-c4noc(C)n4)cc3C)cc2)cc1S(=O)CCN(C)C` (stereo not given), the melting point is 204 to 206 °C.
Next, `CCON=C(c1ccccc1COc1cc(C)ccc1C)c1ccnn1C`: 74 to 76 °C.
Next, `O=C(O)c1ccc2ccc(S(=O)(=O)N(Cc3ccccc3)Cc3ccccc3)cc2c1`: 189 to 190 °C; `CC(C#N)(COc1cc(C#N)ccc1C(F)(F)F)NC(=O)c1ccc(OC(F)(F)F)cc1` (stereo not given): 75 to 78 °C.
Next, `CCC(c1ccc(-c2ccc(Cl)cc2)cc1)N1CCNCC1` (stereo not given): 95 to 97 °C.
Compound `CCOC(=O)c1c(O)c2ccccc2n(C)c1=O` registered a melting point of 67 °C.
Next, `CNC(=O)NS(=O)(=O)c1cc2c(cc1OC)OCC(NC(=O)c1cc(Cl)ccc1OC)C2` (stereo not given): 256 to 257 °C; `COc1ccc2nc3ccc(C(=O)OCOC(=O)C(C)(C)C)cn3c(=O)c2c1`: 129 to 131 °C; `CSCC(C)(C)NC(=O)c1c(I)cccc1C(=O)Nc1ccc(C(C)n2ccc(C(F)(F)F)n2)cc1C` (stereo not given): 79 to 86 °C.
Next, `CCn1c(=O)n(CCCCC(C)=O)c(=O)c2c1ncn2Cc1ccccc1`: 123 to 125 °C; `CCC(=O)CC(=O)OCCC#N`: 98 to 100 °C; `CN(c1ccncc1)n1cccc1CO`: 145 to 148 °C.
In the case of `ClCCCOc1ccc(-c2ccc(OCCCCl)cc2)cc1`, the melting point was 201 °C.
For the compound `CN(C)c1ccc(C2(C#N)CCCC2)cc1`, the melting point lay within 73 to 74 °C.
The compound `COc1ccc2c(C=O)c(OCc3ccccc3)ccc2c1Br` showed a melting point of 214 to 220 °C.
Next, `CC(=O)N1CCN=C1Nc1cc(C)nn1-c1cccc2ccccc12`: 194 to 195 °C.
Next, `COc1ccc(NC(=O)NC(=O)Oc2ccccc2)cc1OC`: 140 to 142 °C; `CCC(C)c1ccc(NS(=O)(=O)c2ccc(N3CCNC3=O)cc2)cc1` (stereo not given): 157 to 159 °C; `O=c1c2ccccc2nc2n1CS(=O)(=O)N2`: greater than 300 °C.
In turn, `CCc1nn(C2CCCC2)c2cc(-c3ccccc3)ccc12` had a melting point of 72 to 74 °C.
Next, `O=C(c1ccccc1)C1OC1c1ccccc1` (stereo not given): 90 °C.
Next, `CCN(CC)CCOc1ccc(Nc2ncc3cc(-c4c(Cl)cccc4Cl)c(=O)n(C)c3n2)cc1`: 141 to 143 °C.
`CC(C(=O)N1c2ccccc2C(=O)N(C)c2cccnc21)N1CCN(C)CC1` (stereo not given): the melting point fell in the range of 206 to 208 °C.
Next, `CN1CCN(CCCNc2cc(Oc3ccc4c(C(=O)Nc5cc(C(C)(C)C)nn5-c5ccc(F)cc5)cccc4c3)ncn2)CC1`: 131 to 133 °C; `O=C(O)c1cc(-c2ccccc2)cnc1Cl`: 239 to 240 °C; `C/C(=C\C(C)O)c1ccc(-c2ccccc2)c(Cl)c1` (stereo not given): 86 °C.
